Assay results published in US20080131432A1, “Method of treating the chemotoxic effects of chemotherapeutic drugs on brain tissue” (University of Kentucky Research Foundation, priority 2005, published 2008).
Entries after “also recorded” stand apart in the source; their conditions may differ. Where a name gives a salt, the structure may show the parent alone.

How the values were obtained:
[1] = tested on: p53 and Bcl-xL complex; test: Co-immunoprecipitation of p53 with Bcl-xL in brain mitochondria; assay type: in vivo, mouse; conditions: after ADR, vs saline control; hydrochloride
Method: Isolated mitochondrial protein (500 μg) was resuspended in 500 μL RIPA buffer (9.1 mM Na2HPO4, 1.7 mM NaH2PO4, 150 mM NaCl, 0.5% sodium deoxycholate, 1% v/v Nonidet P40, 0.1% sodium dodecyl sulfate, pH 7.2). Protease inhibitors (0.1 mg PMSF and 1 μg aprotinin per mL RIPA) were added at the time of use followed by incubation with 5 μg/mL of mouse p53 antibody (Ab-11, Oncogene) at 4° C. overnight. Protein A/G-Agarose (50 μL) was added to the reaction mixture with the antibody. Immunocomplexes were collected by centrifugation at 1,000×g at 4° C. for 5 minutes, then washed four times with RIPA buffer. Immunoprecipitated samples were recovered by resuspending in 2×sample loading buffer, and p53 or Bcl-xL (Santa Cruz Biotechnology, Santa Cruz, Calif.) proteins were detected by Western blot. Immunoreactivity was evaluated on immunoblots by densitrometric analysis using a Bio-RAD densitometer (Bio-RAD Laboratory, Inc, Hercules, Calif., USA).

[2] = in vivo; cited from earlier work
[3] = tested on: TNF α; test: TNF α levels in brain tissue homogenates (Western blot); assay type: in vivo, mouse; conditions: 3 hours after single dose, vs saline control
Method: Brains perfused with PBS were isolated and dissected from four groups of mice 3 hours post injection of a single dose of ADR, anti-TNF α antibody, anti-TNF α antibody immediately followed by ADR, or saline treated mice. Brain was isolated and placed in 0.1 M PBS, pH 7.4 containing protease inhibitors, 4 μg leupeptin, 4 μg pepstatin, and 5 μg aprotinin, washed and minced in ice-cold PBS containing protease inhibitors. […] Protein concentration of brain homogenate was determined by the Bradford assay (Bradford, 1976).
Perfused brain homogenates and isolated mitochondrial proteins were size-separated via 12.5% denaturing polyacrylamide gel electrophoresis (SDS-PAGE) and transferred to a nitrocellulose membrane. The membrane was blocked for 1 hour at room temperature in blocking solution consisting of 5% non-fat dried milk, 0.5% Tween-20 and Tris-buffered saline (TBST), pH 7.9. […] Immunoreactivities of the protein bands were detected by enhanced chemiluminescence autoradiography (ECL, Amersham Phamacia Biotech, Arlington Heights, Ill.) as described by the manufacturer.

COc1cccc2c1C(=O)c1c(O)c3c(c(O)c1C2=O)C[C@@](O)(C(=O)CO)C[C@@H]3O[C@H]1C[C@H](N)[C@H](O)[C@H](C)O1 [ADR, Doxorubicin hydrochloride]
p53 and Bcl-xL complex in brain mitochondria (Bcl-xL bands after anti-p53 immunoprecipitation) [1]: specific increases of p53 and Bcl-xL; also recorded: increased at 3 hours | Crossing of the blood brain barrier [2]: does not cross the blood brain barrier | TNF α levels in brain tissue homogenates [3]: significantly increased
